Laboratory results reported in patent US11400112B2, “Combination therapy for treatment of leukemia” (St George's Hospital Medical School, priority 2018, dated 2022).

How the values were obtained:
[1] = tested on: NB4 naïve cells; test: Viability of NB4 naïve cells (apoptosis assay, Annexin V/7AAD); type: cell-based; conditions: 48 hours
Description: (§1) In particular, the effects of Metformin, Dichloroacetate (DCA) and Artesunate (ART) in combination with arsenic trioxide were evaluated. […] Methods i) In vitro cytotoxicity assay: 10^5 cells/well were seeded in a 96 well plate and treated with increasing concentration of artesunate and arsenic trioxide and incubated for 48 hours. At the end of 48 hrs MTT was added, followed by SDS to solubilize the formazan crystals formed by the viable cells. The absorbance was measured on an ELISA plate reader SpectraMaxM4 (Molecular Devices) at a test wavelength of 570 nm and a reference wavelength of 630 nm to measure the optical density. […] An IC-50 value was generated if significant cytotoxicity was detected. […] CO2 incubator, the viability of the leukemic cells was measured using an Annexin V/7-aminoactinomycin D (7AAD) apoptosis assay kit (BD Pharmingen, San Diego, Calif., USA) as per the manufacturer's protocol. The flow cytometry data were analysed using Cell Quest pro software (BD Biosciences, San Jose, Calif., USA). iii) Measurement of Glucose Uptake: 5×10^5 cells were stained with 2-NBDG (fluorescent analogue of 2-Deoxyglucose) for 10 minutes, washed and the fluorescence measured at 485 nm/595 nm using Spectramax M4. […] The ratio of red to green fluorescence (590/530) was calculated and the Δψm of treated cells compared with the untreated cells.

[2] = tested on: ATO resistant cell lines (NB4-EVAsR1, UF-1); test: Viability of ATO resistant cell lines (apoptosis assay); type: cell-based; conditions: NB4-EVAsR1 and UF-1; 48 hours
Description: as §1

[3] = tested on: U937 cells; test: Viability of U937 cells (apoptosis assay, Annexin V/7AAD); type: cell-based; conditions: 48 hours
Description: The half-maximal inhibitory concentration (IC-50) values were generated using Graph Pad Prism5 software (La Jolla, Calif., USA). ii) Apoptosis Assay: Leukemic cell lines were added (2×10^5 cells/well) in 24-well plates and treated with different drugs reported to disrupt the metabolic adaptation of the leukemia cells along with appropriate controls. After 48 h of incubation at 37° C. CO2 incubator, the viability of the leukemic cells was measured using an Annexin V/7-aminoactinomycin D (7AAD) apoptosis assay kit (BD Pharmingen, San Diego, Calif., USA) as per the manufacturer's protocol. The flow cytometry data were analysed using Cell Quest pro software (BD Biosciences, San Jose, Calif., USA). iii) Measurement of Glucose Uptake: 5×10^5 cells were stained with 2-NBDG (fluorescent analogue of 2-Deoxyglucose) for 10 minutes, washed and the fluorescence measured at 485 nm/595 nm using Spectramax M4.

[4] = mouse, in vivo
Description: To further validate this in vitro observation, in vivo studies were performed on a mouse model of acute promyelocytic leukemia.

[5] = tested on: malignant cells (NB4 naïve, NB4-EVAsR1, U937, THP-1, Kasumi, Jurkat cell lines); test: Apoptosis assay on leukemic cell lines (FIG. 5); type: cell-based; conditions: 2 μM ATO, 5 μM ART, 48 hours
Description: as §1

[6] = tested on: acute promyelocytic leukemia (APL); conditions: standard of care; cited from earlier work

Compound: O=CC[C@@H](O)[C@H](O)[C@H](O)CO [2-DOG, 2-Deoxy-D-glucose]
- viability of NB4 naïve cells [1]: sensitive
- viability of the ATO resistant cell lines [2]: resistant

Compound: NCC(=O)CCC(=O)O [ALA, Delta-aminolevulinic acid]
- viability of AML cells (Annexin V-/7AAD- cells) ([3]; ATO 1 μM, ART 5 μM, ALA 1 mM, DFO 20 μM, FIG. 7): did not affect
- toxicity in mice [4]: significant toxicity

Compound: C[C@H]1[C@H](OC(=O)CCC(=O)O)O[C@@H]2O[C@@]3(C)CC[C@H]4[C@H](C)CC[C@@H]1[C@@]24OO3 [ART, artesunate]
- effect on the malignant cells (Annexin V-/7AAD- cells) [5]: did not have a significant effect

Compound: N#CC(C#N)=NNc1ccc(OC(F)(F)F)cc1 [FCCP, Carbonyl cyanide-4-(trifluoromethoxy)phenylhydrazone]
- viability of the ATO resistant cell lines [2]: remained unaffected

Compound: CN(C)C(=N)N=C(N)N [Metformin]
- effect on the malignant cells (Annexin V-/7AAD- cells) [5]: did not have a significant effect

Compound: Arsenic trioxide [ATO]
- outcome in the management of APL [6]: greater than 80%

Compound: hemin
- viability of AML cells (Annexin V-/7AAD- cells) ([3]; hemin instead of ALA, FIG. 8): did not affect
